The subject of test [1] is Proteus mirabilis (ATCC 29906). As to the kind of experiment: Ammonia production by facultatively grown Proteus mirabilis in urine:TSB (ammonia probe). The test is classed as cell-based. The settings on record: for % Reduction of Ammonia: vs urine:TSB:facultative without mannitol peroxide. As for the experimental part: Proteus mirabilis was taken from a TSB culture (described in (1) above) and grown under various conditions for use in the Examples. For bacteria to be grown under aerobic conditions, 50 microliters of Proteus mirabilis was taken from a TSB culture prepared as described above and inoculated into a 50 mL volume of a freshly made 9:1 (by volume) pooled adult female urine:TSB mixture into a 250 mL shake flask. This mixture was rotated at 250 rpm at 37° C. overnight to grow the bacteria. For bacteria to be grown under facultative conditions, 10 microliters of Proteus mirabilis was taken from a TSB culture prepared as described above and inoculated into a 10 mL volume of a freshly made 9:1 (by volume) pooled adult female urine:TSB mixture into a 15 mL tube. The tube was loosely fitted with a screw cap, and held stationary at 37° C. overnight to grow the bacteria. For bacteria to be grown under anaerobic conditions, 10 microliters of Proteus mirabilis was taken from a TSB culture prepared as described above and inoculated into a 10 mL volume of a freshly made 9:1 (by volume) pooled adult female urine:TSB mixture into a 15 mL conical tube. The tube was purged with nitrogen and a screw cap tightly closed, and then was held stationary overnight at 37° C. to grow the bacteria.
(§1) Upon completion of the respective incubation periods of the samples, optical density measurements of each sample were taken as described above and ammonia production of the growth solutions was measured using an ammonia combination probe (Beckman, Fullerton, Calif.) by record mV using an Orion pH meter (Orion, Boston, Mass.). Orion ammonia standards (Orion) were used to calibrate the instrument.
In this Example, six different samples were prepared for analysis. The first sample comprised a urine:TSB mixture that was prepared in the same manner as that described in Example 1. […] The tube was loosely fitted with a screw cap, and held stationary at 37° C. overnight to grow the bacteria. […] The fifth sample comprising urine:TSB:Proteus mirabilis (facultatively grown) was prepared in the same manner as that described in Example 1.

The next test relates to interleukin-8 (IL-8). As to the kind of experiment: IL-8 release by EPIOCULAR skin culture challenged with sample. It counts as cell-based, human. The settings on record: for IL-8: Table 5, 6 hours; for IL-8 (n = 3): Table 6. The source says:
In order to evaluate the amount of skin irritation by various samples prepared in the Examples, a human skin culture was selected to model the response of the human epidermis to treated and untreated bacterial metabolized urine:TSB mixture. The tissue model selected was an EPIOCULAR Tissue Model (OCL-200 propagated without hydrocortisone), and was purchased from MatTek Corporation (Ashland, Mass.). This model consists of normal, human-derived epidermal keratinocytes, which have been cultured to form a stratified, squamous epithelium similar to that found in the cornea. The epidermal cells, which are cultured on specially prepared cell culture inserts using a serum free medium, differentiate to form a multi-layered structures which closely parallel the corneal epithelium. Experiments using this skin culture were conducted in six parallel wells. Each well contained one milliliter of pre-warmed media that was the same as the model skin culture media. The plates were then incubated in a 37° C., 5% carbon dioxide atmosphere for thirty minutes. After incubation, 25 microliters of the sample were applied to the surface of the model skin culture after removing any residual media. After application of the test solution, the well plates were incubate for 6 hours in the 37° C., 5% carbon dioxide atmosphere. At the end of 6 hours, the well plates were removed from the incubator and the underlying media removed and stored at −80° C. The response of the skin culture to test the compositions/control and the insult solution is determined by measuring the amount of interleukin-1 alpha (IL-1a) and/or interleukin-8 (IL-8). IL-1a and IL-8 were quantified using an Interleukin-1 alpha or Interleukin-8 Quantikine Kit available from R&D Systems (Minneapolis, Minn.).

Test [2] has as its system E. coli (ATCC 8739). Nature of the test: Bacterial yield of facultatively grown E. coli in urine:TSB. The test is classed as cell-based. The settings on record: Table 6, facultative E. coli in urine:TSB. As for the experimental part:
Proteus mirabilis (ATCC 29906) were recovered from frozen state by growing the appropriate bacterial coated MicroBank Bead (Pro Lab, Austin Tex.) in 10 mL trypticase soy broth (TSB, Difco, Ann Arbor, Mich.) in a 15 mL sterile loosely tightened screw capped conical tube overnight at 37° C. The tube was held stationary. (E. coli (ATCC 8739), utilized in Example 6 herein, was recovered using the same procedure described herein for Proteus mirabilis). Upon observation of turbidity, the bacterial suspension was checked for purity by isolation plate and Gram stain. Once determined that the isolate was Proteus mirabilis (or E. coli in Example 6), a colony from the isolation plate was transferred to 10 mL of TSB in a 15 mL sterile screw capped conical tube and incubated overnight at 37° C. under facultative conditions. Samples of bacterial suspension resulting from this overnight TSB culture were used to initiate all experiments utilizing Proteus mirabilis bacteria (or E. coli in Example 6).
The four samples were prepared identically to the four samples in Example 5 with the exception that facultatively grown E. coli was utilized as the bacteria in place of the Proteus mirabilis bacteria. The process for growing facultatively grown E. coli is set forth in Example 1.
After incubation, each sample was analyzed for EPIOCULAR viability and bacterial cell count as set forth in Example 1. […]

Test [3] has as its system E. coli (ATCC 8739). Nature of the test: Ammonia in urine:TSB with facultatively grown E. coli. The test is classed as cell-based. The settings on record: Table 6, facultative E. coli. As for the experimental part: as §1, with “instrument. The four samples were prepared identically to the four samples in Example 5 with the exception that facultatively grown E. coli was utilized as the bacteria in place of the Proteus mirabilis bacteria. The process for growing facultatively grown E. coli is set forth in Example 1.” for “instrument.”

Setting [4] is: Table 4, 5% mannitol peroxide, facultative.
The mark [5] stands for this setting: Table 4, 10% mannitol peroxide, facultative.
Where [6] appears, read: Table 7, 5% mannitol peroxide, facultative.

On to mannitol peroxide, for which the Ammonia/Cell is 1.6 ppm/CFU E+8 in test [1] (Table 3, 5% (w/v) mannitol peroxide, facultative bacteria); 0.01 ppm/CFU E+8 in test [1] (Table 3, 10% mannitol peroxide, facultative bacteria); 1.6 ppm/CFU E+8 in test [1] (setting [4]); 0.01 ppm/CFU E+8 in test [1] (setting [5]); 43.84 ppm/10E8CFU in test [1] (setting [6]). The “Ammonia Produced (n = 3)” value in test [1] (Table 3, 5% (w/v) mannitol peroxide, urine:TSB, facultative bacteria) is listed as 34.5 ± 12.6 ppm; in test [1] (Table 3, 10% mannitol peroxide, urine:TSB, facultative bacteria), 13.9 ± 0.3 ppm; in test [1] (setting [6]) it was 434.5 ± 7.5 ppm. The entries for the “Ammonia (n = 3)” value in test [1] (setting [4]) and in test [1] (setting [5]) were 34.5 ± 12.6 ppm and 13.9 ± 0.3 ppm, respectively. The “% Reduction of Ammonia” value in test [1] (Table 4, 5% mannitol peroxide) is on record as 53.6%; in test [1] (Table 4, 10% mannitol peroxide), 98.5%. In addition, the IL-8 with interleukin-8 (IL-8) (facultative Proteus mirabilis grown with 5% mannitol peroxide) amounted to 27224.30 ± 2432.83 pg/mL; with interleukin-8 (IL-8) (facultative Proteus mirabilis grown with 10% mannitol peroxide), 15884.57 ± 839.53 pg/mL. In addition, the “IL-8 (n = 3)” value with interleukin-8 (IL-8) (facultative E. coli grown with 5% MP) was 1769.31 ± 103.9 pg/mL; with interleukin-8 (IL-8) (facultative E. coli grown with 10% MP), 1336.69 ± 60.84 pg/mL. The “Bacterial Yields” value with E. coli (ATCC 8739) [2] (5% MP) was 2.14E+9 CFU/mL; with E. coli (ATCC 8739) [2] (10% MP), 4.98E+9 CFU/mL. Further, the figures for the Ammonia in the test on E. coli (ATCC 8739) [3] (5% MP) and in the test with E. coli (ATCC 8739) [3] (10% MP) were 12.46 ppm and 14.04 ppm, respectively.
